Literature values in patent publication US20260053764A1, “COMPOSITION FOR PREVENTING DETERIORATION IN COGNITIVE FUNCTION AND/OR IMPROVING COGNITIVE FUNCTION” (PHARMA FOODS INTERNATIONAL CO., LTD., priority 2020, published 2026).

System: cognitive function of elderly people
Conditions: continuous ingestion for a year; cited from earlier work

Row | Compound | reasoning measured by the CNS Vital Signs examination method
1 | CC1=C[C@H](O)CC(C)(C)[C@H]1/C=C/C(C)=C/C=C/C(C)=C/C=C/C=C(C)/C=C/C=C(C)/C=C/C1=C(C)C[C@@H](O)CC1(C)C [lutein] | no improvement
2 | CC1=C(/C=C/C(C)=C/C=C/C(C)=C/C=C/C=C(C)/C=C/C=C(C)/C=C/C2=C(C)C[C@@H](O)CC2(C)C)C(C)(C)C[C@H](O)C1 [zeaxanthin] | no improvement
